{"source": "patent US7268159B2", "about": "“Substituted indoles” (Wyeth, priority 2003, dated 2007)", "key": {"[1]": {"molecular_target": "T1, recombinant human plasminogen activator inhibitor-1 (PAI-1) (Homo sapiens, UniProt P05121)", "T1 construct": "purchased Molecular Innovations, Royal Oak, Mich", "T1 sequence (P05121 24-402)": "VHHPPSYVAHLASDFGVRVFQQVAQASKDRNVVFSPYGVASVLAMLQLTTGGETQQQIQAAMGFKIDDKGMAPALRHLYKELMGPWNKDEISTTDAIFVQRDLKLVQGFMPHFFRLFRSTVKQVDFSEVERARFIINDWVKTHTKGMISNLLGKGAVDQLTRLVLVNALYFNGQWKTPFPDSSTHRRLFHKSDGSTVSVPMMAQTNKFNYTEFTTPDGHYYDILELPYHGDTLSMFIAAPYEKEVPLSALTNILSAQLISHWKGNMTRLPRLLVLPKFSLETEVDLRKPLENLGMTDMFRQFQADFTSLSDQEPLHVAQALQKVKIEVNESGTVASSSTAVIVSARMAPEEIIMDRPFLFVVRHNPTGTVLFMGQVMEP", "test": "Primary screen for the PAI-1 inhibition (residual tPA activity, Spectrozyme-tPA chromogenic substrate)", "type": "biochemical", "details": "140 nM PAI-1, 70 nM tPA, pH 6.6; for inhibition at 10 µM: 10 μM test compound; for inhibition at 25 µM: 25 μM test compound", "procedure": "Test compounds are dissolved in DMSO at a final concentration of 10 mM, then diluted 100× in physiologic buffer. The inhibitory assay is initiated by the addition of the test compound (1-100 μM final concentration, maximun DMSO concentration of 0.2%) in a pH 6.6 buffer containing 140 nM recombinant human plasminogen activator inhibitor-1 (PAI-1; Molecular Innovations, Royal Oak, Mich.). Following a 1 hour incubation at room temperature, 70 nM of recombinant human tissue plasminogen activator (tPA) is added, and the combination of the test compound, PAI-1 and tPA is incubated for an additional 30 minutes. Following the second incubation, Spectrozyme-tPA (American Diagnostica, Greenwich, Conn.), a chromogenic substrate for tPA, is added and absorbance read at 405 nm at 0 and 60 minutes. Relative PAI-1 inhibition is equal to the residual tPA activity in the presence of the test compound and PAI-1. Control treatments include the complete inhibition of tPA by PAI-1 at the molar ratio employed (2:1), and the absence of any effect of the test compound on tPA alone."}, "human PAI-1": {"molecular_target": "human PAI-1 (Homo sapiens, UniProt P05121)", "sequence (P05121 24-402)": "as above", "test": "Assay for determining IC50 of inhibition of PAI-1 (active PAI-1 bound to tPA-coated plate, antibody detection)", "type": "binding", "details": "human PAI-1 50 ng/ml, pH 7.5", "procedure": "This assay is based upon the non-SDS dissociable interaction between tPA and active PAI-1. Assay plates are initially coated with human tPA (10 μg/ml). Test compounds of the present invention are dissolved in DMSO at 10 mM, then diluted with physiologic buffer (pH 7.5) to a final concentration of 1-50 μM. Test compounds are incubated with human PAI-1 (50 ng/ml) for 15 minutes at room temperature. The tPA-coated plate is washed with a solution of 0.05% Tween 20 and 0.1% BSA, then the plate is blocked with a solution of 3% BSA. An aliquot of the substituted indole/PAI-1 solution is then added to the tPA-coated plate, incubated at room temperature for 1 hour, and washed. Active PAI-1 bound to the plate is assessed by adding an aliquot of a 1:1000 dilution of the 33B8 monoclonal antibody against human PAI-1, and incubating the plate at room temperature for 1 hour (Molecular Innovations, Royal Oak, Mich.) The plate is again washed, and a solution of goat anti-mouse IgG-alkaline phosphatase conjugate is added at a 1:50,000 dilution in goat serum. […] The plate is incubated 45 minutes at room temperature, and color development is determined at OD405 nm. The quantitation of active PAI-1 bound to tPA at varying concentrations of the test compound is used to determine the IC50. Results are analyzed using a logarithmic best-fit equation. […]"}}}
{"smiles": "O=C(O)c1cc2ccccc2n1-c1ccc(NS(=O)(=O)c2ccc(OC(F)(F)F)cc2)cc1", "note": "[Compound 1, 1-[4-({[4-(trifluoromethoxy)phenyl]sulfonyl}amino)phenyl]-1H-indole-2-carboxylic acid]", "values": [{"measurement": "inhibition at 10 µM", "setting": "[1]", "value": 39, "unit": "%"}, {"measurement": "inhibition at 25 µM", "setting": "[1]", "value": 40, "unit": "%"}]}
{"smiles": "O=C(O)c1cc2ccccc2n1-c1ccc(-n2cccc2)cc1", "note": "[Compound 2, 1-[4-(1H-pyrrol-1-yl)phenyl]-1H-indole-2-carboxylic acid]", "values": [{"measurement": "inhibition at 10 µM", "setting": "[1]", "value": 15, "unit": "%"}, {"measurement": "inhibition at 25 µM", "setting": "[1]", "value": 35, "unit": "%"}]}
{"smiles": "O=C(O)c1cc2ccccc2n1Cc1ccc(NS(=O)(=O)c2ccc(-c3ccccc3)cc2)cc1", "note": "[Compound 3, 1-{4-[(1,1′-biphenyl-4-ylsulfonyl)amino]benzyl}-1H-indole-2-carboxylic acid]", "values": [{"measurement": "inhibition at 25 µM", "setting": "[1]", "value": 66, "unit": "%"}]}
{"smiles": "CC(C)(C)c1ccc(S(=O)(=O)Nc2ccc(Cn3ccc4cc(C(=O)O)ccc43)cc2)cc1", "note": "[Compound 4, 1-(4-{[(4-tert-butylphenyl)sulfonyl]amino}benzyl)-1H-indole-5-carboxylic acid]", "values": [{"measurement": "inhibition at 25 µM", "setting": "[1]", "value": 27, "unit": "%"}]}
{"smiles": "O=C(O)c1ccc2c(ccn2Cc2ccc(NS(=O)(=O)c3ccc(-c4ccccc4)cc3)cc2)c1", "note": "[Compound 5, 1-{4-[(1,1′-biphenyl-4-ylsulfonyl)amino]benzyl}-1H-indole-5-carboxylic acid]", "values": [{"measurement": "inhibition at 25 µM", "setting": "[1]", "value": 22, "unit": "%"}]}
{"smiles": "CC(C)(C)c1ccc(S(=O)(=O)Nc2ccc(Cn3cc(C(=O)O)c4ccccc43)cc2)cc1", "note": "[Compound 6, 1-(4-{[(4-tert-butylphenyl)sulfonyl]amino}benzyl)-1H-indole-3-carboxylic acid]", "values": [{"measurement": "inhibition at 10 µM", "setting": "[1]", "value": 19, "unit": "%"}, {"measurement": "inhibition at 25 µM", "setting": "[1]", "value": 28, "unit": "%"}]}
{"smiles": "O=C(O)c1cn(Cc2ccc(NS(=O)(=O)c3ccc(-c4ccccc4)cc3)cc2)c2ccccc12", "note": "[Compound 7, 1-{4-[(1,1′-biphenyl-4-ylsulfonyl)amino]benzyl}-1H-indole-3-carboxylic acid]", "values": [{"measurement": "inhibition at 10 µM", "setting": "[1]", "value": 25, "unit": "%"}, {"measurement": "inhibition at 25 µM", "setting": "[1]", "value": 27, "unit": "%"}]}
{"smiles": "CC(C)(C)c1ccc(S(=O)(=O)Nc2ccc(Cn3ccc4c(C(=O)O)cccc43)cc2)cc1", "note": "[Compound 8, 1-(4-{[(4-tert-butylphenyl)sulfonyl]amino}benzyl)-1H-indole-4-carboxylic acid]", "values": [{"measurement": "inhibition at 10 µM", "setting": "[1]", "value": 27, "unit": "%"}, {"measurement": "inhibition at 25 µM", "setting": "[1]", "value": 47, "unit": "%"}]}
{"smiles": "O=C(O)c1cccc2c1ccn2Cc1ccc(NS(=O)(=O)c2ccc(-c3ccccc3)cc2)cc1", "note": "[Compound 9, 1-{4-[(1,1′-biphenyl-4-ylsulfonyl)amino]benzyl}-1H-indole-4-carboxylic acid]", "values": [{"measurement": "inhibition at 10 µM", "setting": "[1]", "value": 26, "unit": "%"}, {"measurement": "inhibition at 25 µM", "setting": "[1]", "value": 35, "unit": "%"}]}
{"smiles": "O=C(O)c1ccc2ccn(Cc3ccc(NS(=O)(=O)c4ccc(-c5ccccc5)cc4)cc3)c2c1", "note": "[Compound 10, 1-{4-[(1,1′-biphenyl-4-ylsulfonyl)amino]benzyl}-1H-indole-6-carboxylic acid]", "values": [{"measurement": "inhibition at 10 µM", "setting": "[1]", "value": 26, "unit": "%"}, {"measurement": "inhibition at 25 µM", "setting": "[1]", "value": 30, "unit": "%"}]}
{"smiles": "O=C(O)c1c(-c2ccccc2)c2ccccc2n1Cc1ccc(NS(=O)(=O)c2ccccc2)cc1", "note": "[Compound 11, 3-phenyl-1-{4-[(phenylsulfonyl)amino]benzyl}-1H-indole-2-carboxylic acid]", "values": [{"measurement": "inhibition at 10 µM", "setting": "[1]", "value": 51, "unit": "%"}, {"measurement": "inhibition at 25 µM", "setting": "[1]", "value": 71, "unit": "%"}]}
{"smiles": "CS(=O)(=O)Nc1ccc(Cn2c(C(=O)O)c(-c3ccccc3)c3ccccc32)cc1", "note": "[Compound 12, 1-{4-[(methylsulfonyl)amino]benzyl}-3-phenyl-1H-indole-2-carboxylic acid]", "values": [{"measurement": "inhibition at 10 µM", "setting": "[1]", "value": 42, "unit": "%"}, {"measurement": "inhibition at 25 µM", "setting": "[1]", "value": 49, "unit": "%"}]}
{"smiles": "O=C(O)c1c(-c2cccs2)c2ccccc2n1Cc1ccc(NS(=O)(=O)c2ccccc2)cc1", "note": "[Compound 13, 1-{4-[(phenylsulfonyl)amino]benzyl}-3-thien-2-yl-1H-indole-2-carboxylic acid]", "values": [{"measurement": "inhibition at 10 µM", "setting": "[1]", "value": 50, "unit": "%"}, {"measurement": "inhibition at 25 µM", "setting": "[1]", "value": 79, "unit": "%"}]}
{"smiles": "CS(=O)(=O)Nc1ccc(Cn2c(C(=O)O)c(-c3cccs3)c3ccccc32)cc1", "note": "[Compound 14, 1-{4-[(methylsulfonyl)amino]benzyl}-3-thien-2-yl-1H-indole-2-carboxylic acid]", "values": [{"measurement": "inhibition at 10 µM", "setting": "[1]", "value": 45, "unit": "%"}, {"measurement": "inhibition at 25 µM", "setting": "[1]", "value": 53, "unit": "%"}]}
{"smiles": "Cc1ccc(C)n1-c1ccc(Cn2c(C(=O)O)c(-c3ccccc3)c3ccccc32)cc1", "note": "[Compound 15, 1-[4-(2,5-dimethyl-1H-pyrrol-1-yl)benzyl]-3-phenyl-1H-indole-2-carboxylic acid]", "values": [{"measurement": "IC50", "setting": "human PAI-1", "value": 2.51, "unit": "µM"}, {"measurement": "inhibition at 10 µM", "setting": "[1]", "value": 53, "unit": "%"}, {"measurement": "inhibition at 25 µM", "setting": "[1]", "value": 69, "unit": "%"}]}
{"smiles": "O=C(O)c1c(-c2ccccc2)c2ccccc2n1Cc1ccc(Nc2ccccc2)cc1", "note": "[Compound 16, 1-(4-anilinobenzyl)-3-phenyl-1H-indole-2-carboxylic acid]", "values": [{"measurement": "inhibition at 10 µM", "setting": "[1]", "value": 26, "unit": "%"}, {"measurement": "inhibition at 25 µM", "setting": "[1]", "value": 32, "unit": "%"}]}
{"smiles": "O=C(O)c1c(-c2cccs2)c2ccccc2n1Cc1ccc(Nc2ccccc2)cc1", "note": "[Compound 17, 1-(4-anilinobenzyl)-3-thien-2-yl-1H-indole-2-carboxylic acid]", "values": [{"measurement": "inhibition at 10 µM", "setting": "[1]", "value": 25, "unit": "%"}, {"measurement": "inhibition at 25 µM", "setting": "[1]", "value": 35, "unit": "%"}]}
